Experimental data published in ChEMBL document CHEMBL1909046, “DrugMatrix in vitro pharmacology data”.

Columns and labels:
[1] = target: T1, C-X-C chemokine receptor type 1 (Homo sapiens, UniProt P25024); further: in other assays of this panel Not Active means under 50% inhibition at 10 µM
T1 sequence (P25024 whole entry): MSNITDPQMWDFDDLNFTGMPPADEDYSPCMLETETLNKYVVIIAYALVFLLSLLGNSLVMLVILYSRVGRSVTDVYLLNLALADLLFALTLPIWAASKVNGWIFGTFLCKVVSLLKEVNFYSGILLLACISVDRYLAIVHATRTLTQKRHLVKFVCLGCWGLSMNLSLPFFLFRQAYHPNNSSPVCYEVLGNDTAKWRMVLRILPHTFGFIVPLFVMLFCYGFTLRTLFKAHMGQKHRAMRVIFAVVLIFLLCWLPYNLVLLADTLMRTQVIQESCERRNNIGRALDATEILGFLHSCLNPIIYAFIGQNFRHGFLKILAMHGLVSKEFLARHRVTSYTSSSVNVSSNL

Melanocortin receptor 5 = Melanocortin receptor 5 (Homo sapiens, UniProt P33032); format: cell membranes, HEK293, Membrane; settings: hek293; further: in other assays of this panel Not Active means under 50% inhibition at 10 µM
[2] = target: T2, Polyunsaturated fatty acid lipoxygenase ALOX15 (Oryctolagus cuniculus, UniProt P12530); assay: biochemical; format: tissue-based, Reticulocytes; settings: reticulocytes;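 further: inhibition of 15-lipoxygenase enzyme activity measured with linoleic acid as the substrate; in other assays of this panel Not Active means under 50% inhibition at 10 µM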
T2 sequence (P12530 whole entry): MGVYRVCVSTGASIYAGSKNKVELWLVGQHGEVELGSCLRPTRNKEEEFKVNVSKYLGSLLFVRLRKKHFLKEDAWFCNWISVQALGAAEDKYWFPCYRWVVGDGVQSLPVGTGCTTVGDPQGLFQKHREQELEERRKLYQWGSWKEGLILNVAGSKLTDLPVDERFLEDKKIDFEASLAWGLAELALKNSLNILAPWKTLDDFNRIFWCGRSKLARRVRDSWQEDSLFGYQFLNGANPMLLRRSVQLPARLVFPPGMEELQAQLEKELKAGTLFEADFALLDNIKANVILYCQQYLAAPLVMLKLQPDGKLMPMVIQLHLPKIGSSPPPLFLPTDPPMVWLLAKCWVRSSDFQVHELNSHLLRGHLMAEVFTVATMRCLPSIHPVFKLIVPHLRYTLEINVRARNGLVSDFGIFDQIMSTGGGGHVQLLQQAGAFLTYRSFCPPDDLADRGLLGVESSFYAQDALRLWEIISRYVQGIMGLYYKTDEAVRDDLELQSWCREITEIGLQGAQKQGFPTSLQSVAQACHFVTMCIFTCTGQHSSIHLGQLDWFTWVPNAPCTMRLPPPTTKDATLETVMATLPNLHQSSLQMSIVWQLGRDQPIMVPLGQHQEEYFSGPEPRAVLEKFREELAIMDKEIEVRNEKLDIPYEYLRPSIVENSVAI

Estrogen receptor = target: T3, Estrogen receptor (Homo sapiens, UniProt P03372); settings: sf9; further: in other assays of this panel Not Active means under 50% inhibition at 10 µM
T3 sequence (P03372 whole entry): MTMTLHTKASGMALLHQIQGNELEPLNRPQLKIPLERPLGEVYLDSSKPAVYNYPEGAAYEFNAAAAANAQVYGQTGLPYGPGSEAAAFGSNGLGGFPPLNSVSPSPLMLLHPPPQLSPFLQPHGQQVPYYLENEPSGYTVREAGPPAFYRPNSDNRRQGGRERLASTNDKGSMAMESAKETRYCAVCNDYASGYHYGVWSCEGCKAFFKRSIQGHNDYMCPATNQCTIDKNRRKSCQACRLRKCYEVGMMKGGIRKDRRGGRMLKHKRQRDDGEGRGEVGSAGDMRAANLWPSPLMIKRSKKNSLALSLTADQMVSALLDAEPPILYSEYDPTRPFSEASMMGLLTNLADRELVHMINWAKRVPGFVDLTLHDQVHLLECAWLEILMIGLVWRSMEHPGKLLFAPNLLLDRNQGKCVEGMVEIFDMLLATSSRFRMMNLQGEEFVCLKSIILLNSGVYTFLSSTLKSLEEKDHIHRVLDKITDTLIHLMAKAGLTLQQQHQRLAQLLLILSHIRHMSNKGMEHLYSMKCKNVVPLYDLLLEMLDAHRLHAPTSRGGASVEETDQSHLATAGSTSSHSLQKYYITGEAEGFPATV

[3] = DRUGMATRIX: Serotonin (5-Hydroxytryptamine) 5-HT3 radioligand binding (ligand: [3H] GR-65630); format: cell membranes, Membrane; settings: hek293; Not Active = under 50% inhibition at 10 µM
[4] = DRUGMATRIX: Calcium Channel Type L, Phenylalkylamine radioligand binding (ligand: [3H] (-)-Desmethoxyverapamil (D-888)); format: cell membranes, Rattus norvegicus, Wistar, Brain, Membrane; settings: Not Active = under 50% inhibition at 10 µM
[5] = DRUGMATRIX: Phorbol Ester radioligand binding (ligand: [3H] PDBu); format: cell membranes, Mus musculus, ICR, Brain, Membrane; settings: Not Active = under 50% inhibition at 10 µM
Melanocortin receptor 3 = Melanocortin receptor 3 (Homo sapiens, UniProt P41968); format: cell membranes, Membrane; settings: hek293; further: in other assays of this panel Not Active means under 50% inhibition at 10 µM
[6] = target: 5-hydroxytryptamine receptor 6 (Homo sapiens, UniProt P50406); format: cell membranes, HeLa, Membrane; settings: hela; further: in other assays of this panel Not Active means under 50% inhibition at 10 µM
[7] = target: Protein phosphatase 3 catalytic subunit alpha (Homo sapiens, UniProt Q08209); parameters: species or system Escherichia coli
[8] = target: C-C chemokine receptor type 5 (Homo sapiens, UniProt P51681); format: cell membranes, Membrane; settings: hek293; further: in other assays of this panel Not Active means under 50% inhibition at 10 µM
[9] = target: Tyrosine-protein kinase Lck (Homo sapiens, UniProt P06239); assay: DRUGMATRIX: Protein Tyrosine Kinase, LCK enzyme inhibition (substrate: Poly(Glu:Tyr)); format: cell-based, Insect cells; settings: insect cells, Not Active = under 50% inhibition at 10 µM
Cytochrome P450 2C9 = Cytochrome P450 2C9 (Homo sapiens, UniProt P11712); settings: bti-tn-5b1-4; further: in other assays of this panel Not Active means under 50% inhibition at 10 µM
[10] = target: T4, Alpha-2A adrenergic receptor (Homo sapiens, UniProt P08913); format: cell membranes, Sf9, Membrane; settings: sf9; further: in other assays of this panel Not Active means under 50% inhibition at 10 µM
T4 sequence (P08913 whole entry): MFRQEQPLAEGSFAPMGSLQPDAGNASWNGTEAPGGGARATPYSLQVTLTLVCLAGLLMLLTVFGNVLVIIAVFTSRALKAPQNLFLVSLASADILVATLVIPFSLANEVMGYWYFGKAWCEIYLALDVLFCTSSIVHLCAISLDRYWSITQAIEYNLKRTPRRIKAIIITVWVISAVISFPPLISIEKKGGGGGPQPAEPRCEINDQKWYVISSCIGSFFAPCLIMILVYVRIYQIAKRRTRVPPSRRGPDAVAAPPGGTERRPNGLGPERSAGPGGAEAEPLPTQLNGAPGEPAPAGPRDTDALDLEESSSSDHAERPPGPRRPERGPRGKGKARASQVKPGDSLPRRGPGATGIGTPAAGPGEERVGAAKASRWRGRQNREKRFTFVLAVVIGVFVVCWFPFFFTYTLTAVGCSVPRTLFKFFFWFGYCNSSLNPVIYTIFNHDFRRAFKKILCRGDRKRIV

Chain of C-C chemokine receptor type 5 (P51681 whole entry): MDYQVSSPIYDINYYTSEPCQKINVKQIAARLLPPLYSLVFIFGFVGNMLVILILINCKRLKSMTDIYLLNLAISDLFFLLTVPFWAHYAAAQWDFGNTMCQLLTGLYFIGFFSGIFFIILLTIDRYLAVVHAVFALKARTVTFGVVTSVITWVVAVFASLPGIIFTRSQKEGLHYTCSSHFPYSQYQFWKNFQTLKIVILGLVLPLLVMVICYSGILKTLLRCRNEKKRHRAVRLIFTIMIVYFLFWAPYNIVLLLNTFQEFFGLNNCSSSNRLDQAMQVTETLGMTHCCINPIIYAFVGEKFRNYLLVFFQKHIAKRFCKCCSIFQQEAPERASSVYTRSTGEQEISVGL
Chain of Melanocortin receptor 5 (P33032 whole entry): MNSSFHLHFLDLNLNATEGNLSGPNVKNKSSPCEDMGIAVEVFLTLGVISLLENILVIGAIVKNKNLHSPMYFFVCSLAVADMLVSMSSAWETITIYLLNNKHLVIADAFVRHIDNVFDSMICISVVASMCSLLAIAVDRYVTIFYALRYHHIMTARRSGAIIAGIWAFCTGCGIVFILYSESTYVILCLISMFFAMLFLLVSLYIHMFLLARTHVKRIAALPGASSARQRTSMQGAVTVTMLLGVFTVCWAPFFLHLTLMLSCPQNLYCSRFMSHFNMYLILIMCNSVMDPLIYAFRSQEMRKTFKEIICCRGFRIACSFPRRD
Chain of 5-hydroxytryptamine receptor 6 (P50406 whole entry): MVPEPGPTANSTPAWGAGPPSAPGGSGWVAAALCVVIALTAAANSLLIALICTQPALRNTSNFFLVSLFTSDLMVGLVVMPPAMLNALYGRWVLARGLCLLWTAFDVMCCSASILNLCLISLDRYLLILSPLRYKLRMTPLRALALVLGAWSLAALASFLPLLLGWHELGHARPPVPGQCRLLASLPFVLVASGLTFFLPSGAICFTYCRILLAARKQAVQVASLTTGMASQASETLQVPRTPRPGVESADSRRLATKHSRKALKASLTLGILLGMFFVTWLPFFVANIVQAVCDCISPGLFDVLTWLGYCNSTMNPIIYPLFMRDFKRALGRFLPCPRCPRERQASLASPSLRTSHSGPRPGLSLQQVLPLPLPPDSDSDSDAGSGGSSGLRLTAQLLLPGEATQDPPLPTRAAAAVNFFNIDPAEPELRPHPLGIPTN
Chain of Tyrosine-protein kinase Lck (P06239 whole entry): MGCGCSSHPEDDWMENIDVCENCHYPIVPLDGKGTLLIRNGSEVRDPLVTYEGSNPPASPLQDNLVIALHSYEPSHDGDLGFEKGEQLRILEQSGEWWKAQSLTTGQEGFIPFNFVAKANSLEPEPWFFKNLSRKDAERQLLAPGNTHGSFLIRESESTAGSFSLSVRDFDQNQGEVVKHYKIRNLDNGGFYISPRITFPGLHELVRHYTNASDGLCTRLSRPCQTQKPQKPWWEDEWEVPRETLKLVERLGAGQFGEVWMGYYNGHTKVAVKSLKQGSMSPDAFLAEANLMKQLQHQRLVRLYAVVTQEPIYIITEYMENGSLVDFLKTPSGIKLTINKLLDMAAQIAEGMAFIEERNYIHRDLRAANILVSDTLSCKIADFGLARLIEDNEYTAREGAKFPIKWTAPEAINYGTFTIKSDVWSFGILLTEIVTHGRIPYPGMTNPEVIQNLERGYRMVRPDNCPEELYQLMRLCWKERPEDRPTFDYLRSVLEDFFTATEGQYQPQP
Chain of Cytochrome P450 2C9 (P11712 whole entry): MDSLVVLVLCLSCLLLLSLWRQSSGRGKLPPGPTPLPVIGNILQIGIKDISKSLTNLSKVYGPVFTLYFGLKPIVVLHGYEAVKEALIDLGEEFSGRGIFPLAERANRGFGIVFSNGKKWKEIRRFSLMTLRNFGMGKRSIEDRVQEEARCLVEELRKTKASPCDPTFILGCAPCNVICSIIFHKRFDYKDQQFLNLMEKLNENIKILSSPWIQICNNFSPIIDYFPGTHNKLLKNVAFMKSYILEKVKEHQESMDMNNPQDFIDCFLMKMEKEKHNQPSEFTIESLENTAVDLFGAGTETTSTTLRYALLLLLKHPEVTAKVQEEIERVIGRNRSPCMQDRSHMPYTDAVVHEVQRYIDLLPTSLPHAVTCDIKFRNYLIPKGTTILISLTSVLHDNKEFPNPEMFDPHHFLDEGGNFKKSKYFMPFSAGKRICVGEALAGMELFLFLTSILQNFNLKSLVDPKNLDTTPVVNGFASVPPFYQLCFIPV
Chain of Melanocortin receptor 3 (P41968 whole entry): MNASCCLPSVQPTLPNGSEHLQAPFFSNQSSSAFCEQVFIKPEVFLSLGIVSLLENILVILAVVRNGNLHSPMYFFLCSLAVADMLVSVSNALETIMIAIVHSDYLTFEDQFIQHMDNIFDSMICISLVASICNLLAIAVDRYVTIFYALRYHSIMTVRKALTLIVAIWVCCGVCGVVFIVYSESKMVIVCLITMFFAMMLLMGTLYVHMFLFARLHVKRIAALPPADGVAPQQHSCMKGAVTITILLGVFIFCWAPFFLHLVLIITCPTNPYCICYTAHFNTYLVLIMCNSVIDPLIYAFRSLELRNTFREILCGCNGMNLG

Substance	IC50 [1]	Ki [1]	IC50 [2]	Ki [2]	IC50 (Estrogen receptor)	Ki (Estrogen receptor)	IC50 [3]	Ki [3]	IC50 [4]	Ki [4]	IC50 [5]	Ki [5]	IC50 (Melanocortin receptor 3)	Ki (Melanocortin receptor 3)	IC50 [6]	Ki [6]	IC50 [7]	Ki [7]	IC50 [8]	Ki [8]	other results
CARBOPLATIN	Not Active	Not Active	Not Active	Not Active	Not Active	Not Active	Not Active	Not Active	Not Active	Not Active	Not Active	Not Active	Not Active	Not Active	Not Active	Not Active	Not Active	Not Active	Not Active	Not Active	IC50 (Melanocortin receptor 5): Not Active; Ki (Melanocortin receptor 5): Not Active; IC50 [9]: Not Active; Ki [9]: Not Active; IC50 (Cytochrome P450 2C9): Not Active; Ki (Cytochrome P450 2C9): Not Active; IC50 [10]: Not Active; Ki [10]: Not Active
CISPLATIN	Not Active	Not Active	Not Active	Not Active	Not Active	Not Active	Not Active	Not Active	Not Active	Not Active	Not Active	Not Active	Not Active	Not Active	Not Active	Not Active	Not Active	Not Active	Not Active	Not Active	IC50 (Melanocortin receptor 5; read-out: IC50): 6.43 µM; Ki (Melanocortin receptor 5; read-out: Ki): 6.04 µM; IC50 ([9]; read-out: IC50): 22.9 µM; IC50 (Cytochrome P450 2C9): Not Active; Ki (Cytochrome P450 2C9): Not Active; IC50 [10]: Not Active; Ki [10]: Not Active
GOLD SODIUM THIOMALATE	Not Active	Not Active	Not Active	Not Active	Not Active	Not Active	Not Active	Not Active	Not Active	Not Active	Not Active	Not Active	Not Active	Not Active	Not Active	Not Active	Not Active	Not Active	Not Active	Not Active	IC50 (Melanocortin receptor 5): Not Active; Ki (Melanocortin receptor 5): Not Active; IC50 [9]: Not Active; Ki [9]: Not Active; IC50 (Cytochrome P450 2C9): Not Active; Ki (Cytochrome P450 2C9): Not Active; IC50 [10]: Not Active; Ki [10]: Not Active
OXALIPLATIN	Not Active	Not Active	Not Active	Not Active	Not Active	Not Active	Not Active	Not Active	Not Active	Not Active	Not Active	Not Active	Not Active	Not Active	Not Active	Not Active	Not Active	Not Active	Not Active	Not Active	IC50 (Melanocortin receptor 5): Not Active; Ki (Melanocortin receptor 5): Not Active; IC50 [9]: Not Active; Ki [9]: Not Active; IC50 (Cytochrome P450 2C9): Not Active; Ki (Cytochrome P450 2C9): Not Active; IC50 [10]: Not Active; Ki [10]: Not Active
